# According to publication PMC4376724, “Differential Phenotypic and Functional Profiles of TcCA-2 -Specific Cytotoxic CD8^+ T Cells in the Asymptomatic versus Cardiac Phase in Chagasic Patients” (PLoS ONE, 2015):
# Several values for one entry are separate records, joined by “and”; a condition that tells them apart may be missing. Identical values can stand only once.
# Legend:
# [1] = tested on: PBMC from HLA-A*02:01 Chagas disease patients and healthy donors; assay: Granzyme B ELISPOT in PBMC; type: cell-based, human; conditions: 30 h, non-peptide control spots subtracted
# Method: For the screening of the recognition of TcCA-2 epitopes by Chagas disease patients, 10 HLA-A*02:01 adult patients in the asymptomatic phase of the disease (IND) were enrolled. For cytotoxicity, functional activity determinations and phenotypic characterization another group of 19 HLA-A*02:01 adults Chagas disease patients and 9 healthy donors were analyzed. These patients were at the chronic stage of the disease and were considered to be at the asymptomatic phase (IND, n = 8) if there was no evidence of having cardiac or gastrointestinal disorders. Chronic Chagas cardiomyopathy patients (CCC, n = 11) were stratified into G1 to G3 stages following Kuschnir classification according to clinical criteria and radiological, electrocardiographic and echocardiography analyses. The number of patients was the one recommended by the Hospital Ethical Committee. […] The patients were enrolled in both studies (functional and phenotypic characterization, IND n = 6 and CCC n = 7) when the available number of purified PBMC (limited by the cellular number isolated from each subject) was enough for both analyses. Another four CCC patients had to be enrolled to perform the phenotypic analysis in order to reach statistical significance.
# The frequency of Granzyme B (GzB) producing cells was evaluated by ELISPOT assays using cryopreserved PBMC from Chagas disease patients and healthy donors as control. This protocol was carried out as described in [20]. Briefly, 96-well PVDF membrane-bottom plates (Millipore) were pre-wetted with 35% ethanol and washed five times with PBS. Subsequently, plates were coated with 100 μL of anti-GzB (5 μg/mL) monoclonal antibody (Mabtech) and incubated overnight at 4°C. Plates were washed with PBS and incubated with 200 μL/well of blocking solution (RPMI-1640-10% FCS) at room temperature for 30 minutes. Afterwards, 5 × 10^4 PBMC/well were added and incubated with 1 μM of each peptide for 30 h at 37°C with 5% CO2, in triplicates. As a positive control, the PBMC were stimulated with 50 ng/ml phorbol 12-myristate 13-acetate (PMA, Sigma) and 500 ng/ml ionomycin (Sigma), or 10 μg/mL of phytohaemaglutinin (PHA, Sigma). Supernatants were harvested and aliquoted at -80°C for subsequent cytokine secretion profile determination. After five washes, 100 μL/well of a 1 μg/mL solution of biotinylated GzB-specific antibody (Mabtech) was added in 0.5% iFCS in PBS, and the plates were incubated for 2 h at room temperature. Wells were extensively washed with PBS and incubated with 100 μL/well streptavidin-alkaline phosphatase (Sigma) at dilution of 1:6000 for 1 h at room temperature. After washing (5x) with PBS, 50 μL/well of substrate solution (NBT-BCIP substrate, Sigma) were added. The wells were incubated for 20–30 min at room temperature in the dark. The reaction was stopped by rinsing the plates with cold tap water. The spots were visualized in an AXIO PLAN 2 Imagine microscope and quantified using KS ELISPOT software. The results are expressed as the number of peptide-induced spots forming cell (SFC) x10^6 PBMC after subtracting the spot number of peptide un-stimulated PBMCs (basal response). The results were considered positive when a minimum of 20 SFCx10^6 PBMCs and of at least over twofold basal spot numbers were detected.
# The cytotoxic activity of the CD8^+ T cells specific for these four TcCA-2-derived epitopes was evaluated by secretion of GzB through ELISPOT assays. Thus, PBMC from 15 HLA-A*02:01 chagasic patients (8 IND and 7 CCC) and 9 healthy donors were incubated with the peptides under study. A positive GzB response was detected in 3 patients (2 IND and 1 CCC) out of 10 in response to incubation with the TcCA-2_657-666 peptide, 5 patients (3 IND and 2 CCC) out of 14 in response to the TcCA-2_442-451 peptide, 3 patients (3 CCC) out of 14 in response to the TcCA-2_607-615 peptide and 2 patients (2 IND) out of 11 in response to the TcCA-2_273-281 peptide (Table 3). Cytotoxic activities were not detected in any healthy donor. […]
# [2] = tested on: PBMCs from asymptomatic HLA-A*02:01 Chagas disease patients; assay: HLA-A*02:01 restriction assay: peptide-pulsed K562-A2 cells as APC, IFN-γ secretion by patient PBMC; type: cell-based, human; conditions: K562-A2 cells pulsed with 1 mM peptide 1 h, co-cultured 30 h with PBMC of asymptomatic (IND) patients; positive = IFN-γ at least two folds un-stimulated cells
# [3] = PBMC of patient CCC I 770, 1 μM peptide
# [4] = PBMC of patient CCC I 861, 1 μM peptide
# [5] = PBMC of patient CCC I 884, 1 μM peptide
# [6] = PBMC of patient CCC III 509, 1 μM peptide
# [7] = PBMC of patient IND 365, 1 μM peptide
# [8] = PBMC of patient IND 388, 1 μM peptide
# [9] = PBMC of patient IND 510, 1 μM peptide
# [10] = PBMC of patient IND 535, 1 μM peptide
# [11] = PBMC of patient IND 571, 1 μM peptide
# [12] = PBMC of patient IND 917, 1 μM peptide
# [13] = PBMC of subject HD 001, 1 μM peptide
# [14] = PBMC of subject HD 004, 1 μM peptide
# [15] = PBMC of subject HD 005, 1 μM peptide
# [16] = PBMC of subject HD 006, 1 μM peptide
# [17] = PBMC of subject HD 008, 1 μM peptide
# [18] = PBMC of subject HD 011, 1 μM peptide
# [19] = PBMC of subject HD 340, 1 μM peptide
# [20] = PBMC of subject HD 664, 1 μM peptide
# [21] = PBMC of patient CCC I 456, 1 μM peptide
# [22] = PBMC of patient CCC II 142, 1 μM peptide
# [23] = PBMC of patient CCC III 797, 1 μM peptide
# [24] = PBMC of patient IND 265, 1 μM peptide
# [25] = PBMC of patient IND 283, 1 μM peptide
Sequence,"GzB [1, 3] [SFC/10^6]","GzB [1, 4] [SFC/10^6]","GzB [1, 5] [SFC/10^6]","GzB [1, 6] [SFC/10^6]","GzB [1, 7] [SFC/10^6]","GzB [1, 8] [SFC/10^6]","GzB [1, 9] [SFC/10^6]","GzB [1, 10] [SFC/10^6]","GzB [1, 11] [SFC/10^6]","GzB [1, 12] [SFC/10^6]","GzB [1, 13] [SFC/10^6]","GzB [1, 14] [SFC/10^6]","GzB [1, 15] [SFC/10^6]","GzB [1, 16] [SFC/10^6]","GzB [1, 17] [SFC/10^6]","GzB [1, 18] [SFC/10^6]","GzB [1, 19] [SFC/10^6]","GzB [1, 20] [SFC/10^6]",Chagas disease patient: patients with positive response in relation with the total number of patients per assay [2],"GzB [1, 21] [SFC/10^6]",further results
ALQVTNHRYL [TcCA-2_657-666],-7,50,0,0,0,7,-7,67,83,-10,0,-7,-40,0,-47,-7,1,0,Two out of 9 and 2/9,–,"GzB ([1]; PBMC of subject HD 017, 1 μM peptide): 0 SFC/10^6"
TVFDASRSTV [TcCA-2_442-451],13,0,7,50,27,0,0,-13,–,40,0,0,-40,-7,-73,-20,1,1,2 out of 10 and 2/10,-7,"GzB [1, 22]: 80 SFC/10^6; GzB [1, 23]: 7 SFC/10^6; GzB [1, 24]: -13 SFC/10^6; GzB [1, 25]: 47 SFC/10^6"
AAAGDKLSL [TcCA-2_273-281],-7,8,7,0,7,33,-20,-27,67,13,1,0,-47,-7,-47,-20,0,0,1 out of 10 and 1/10,13,–
ALRNLRVFL [TcCA-2_607-615],0,-8,0,25,7,13,13,-7,–,-20,0,-7,-47,7,-70,-7,0,0,3 out of 9 and 3/9,13,"GzB [1, 22]: 53 SFC/10^6; GzB [1, 23]: 27 SFC/10^6; GzB [1, 24]: -100 SFC/10^6; GzB [1, 25]: -20 SFC/10^6"
